Patent US7846944B2, “Pyrazolo-pyridinone compounds and methods of use thereof” (Amgen Inc., priority 2007, dated 2010)
pIC50: −log10 of the molar value.

What was measured:
recombinant human p38α = recombinant human p38α (Homo sapiens, UniProt Q16539); assay: Purified and activated recombinant human p38α HTRF kinase assay; type: biochemical; details: 1 nM p38α, 50 μM ATP, GST-ATF2 substrate, read-out: p38a IC50
Description: Purified and Activated Recombinant Human p38α Assay
• Kinase Reaction Buffer: Kinase reaction buffer for p38α HTRF assays consists of 50 mM Tris-pH 7.5, 5 mM MgCl2, 0.1 mg/mL BSA, 100 μM Na3VO4 and 0.5 mM DTT. • HTRF Detection Buffer: HTRF detection buffer contains 100 mM HEPES-pH 7.5, 100 mM NaCl, 0.1% BSA, 0.05% Tween-20, and 10 mM EDTA. • Serial Dilution of Compounds: Compounds were dissolved in 100% DMSO and serially diluted (3 fold, 10 point) in a polypropylene 96-well microtiter plate (drug plate). The final starting concentration of compounds in the p38α enzymatic assays was 1 μM. Columns 6 and 12 (HI controls and LO controls respectively) in the drug plate were reserved as controls and contained only DMSO. • Kinase Reaction The p38α kinase reactions were carried out in a polypropylene 96-well black round bottom assay plate in total volume of 30 μL kinase reaction buffer. Appropriate concentration of purified and activated enzyme (recombinant human) was mixed with indicated concentration of ATP and 100 nM GST-ATF2-Avitag, in the presence or absence (HI control) of Compound. See table below for actual concentrations. In the absence of substrate, the background was measured as LO control. The reaction was allowed to incubate for 1 hour at RT. • Assay Reagent Concentrations: The final reagent concentrations were 1 nM p38α and 50 μM ATP. […] After 60 minutes incubation at room temperature, the assay plate was read in a Discovery Plate Reader. The wells were excited with coherent 320 nm light and the ratio of delayed ([…] post excitation) emissions at […] (native europium fluorescence) and 665 nm (europium fluorescence transferred to allophycocyanin—an index of substrate phosphorylation) was determined (Park et al, 1999). • Data Analysis: The proportion of substrate phosphorylated in the kinase reaction in the presence of compound compared with that phosphorylated in the presence of DMSO vehicle alone (HI control) was calculated using the formula: % control (POC)=(compound−average LO)/(average HI−average LO)*100. Data (consisting of POC and inhibitor concentration in μM) was fitted to a 4-parameter equation (y=A+((B−A)/(1+((x/C)^D))), where A is the minimum y (POC) value, B is the maximum y (POC), C is the x (compound concentration) at the point of inflection and D is the slope factor, using a Levenburg-Marquardt non-linear regression algorithm.
The inhibition constant (Ki) of the inhibitor was estimated from the IC50 (compound concentration at the point of inflection C) using the Cheng-Prussof equation: Ki=IC50/(1+S/Km), where S is the ATP substrate concentration, and Km is the Michaelis constant for ATP as determined experimentally. All results were expressed as the mean±the standard error of the mean. Data acquisition and non-linear regression algorithms were performed using Activity Base v5.2 and XL-fit software v4.1 respectively. All data was archived using Activity Base v5.2 software.

[1] = system: TNF-α secretion by LPS-treated THP1 cells; assay: Lipopolysaccharide-activated THP1 cell TNF production assay; type: cell-based; details: Homo sapiens, THP-1; LPS, 3 hours, THP1 cells; read-out: IC50 in the THP-1 cellular TNF production assay
Description: Lipopolysaccharide-Activated THP1 Cell TNF Production Assay
THP1 cells were resuspended in fresh THP1 media (RPMI 1640, 10% heat-inactivated FBS, 1×PGS, 1×NEAA, plus 30 μM βME) at a concentration of 1.5×10^6 cells per mL. One hundred microliters of cells per well were plated in a polystyrene 96-well tissue culture plate. 1.5 micrograms per mL of bacterial LPS was prepared in THP1 media and transferred to the first 11 columns of a 96-well polypropylene plate. Column 12 contained only THP1 media for the LO control. Compounds were dissolved in 100% DMSO and serially diluted 3 fold in a polypropylene 96-well microtiter plate (drug plate). Columns 6 and 12 were reserved as controls (HI controls and LO controls respectively) and contained only DMSO. 10 μL of LPS followed by one microliter of inhibitor compound from the drug plate was transferred to the cell plate. The treated cells were induced to synthesize and secrete TNF-α in a 37° C. humidified incubator with 5% CO2 for 3 hours. Fifty microliters of conditioned media was transferred to a 96-well MULTI-ARRAY™ 96-well small spot plate—custom coated with MAB610 containing 100 μL of 2× Read Buffer P supplemented with 0.34 nM AF210NA polyclonal Ab labeled with ruthenium (MSD-Sulfo-TAG™-NHS ester). After an overnight incubation at room temperature with shaking, the reaction was read on the Sector Imager™ 6000. […] The amount of secreted TNF-α in the presence of AMG compounds compared with that in the presence of DMSO vehicle alone (HI control) was calculated using the formula: % control (POC)=(cpd−average LO)/(average HI−averageLO)*100. Data (consisting of POC and inhibitor concentration in μM) was fitted to a 4-parameter equation (y=A+((B−A)/(1+((x/C)^D))), where A is the minimum y (POC) value, B is the maximum y (POC), C is the x (cpd concentration) at the point of inflection and D is the slope factor) using a Levenburg-Marquardt non-linear regression algorithm.

recombinant human p38α, sequence (Q16539 whole entry): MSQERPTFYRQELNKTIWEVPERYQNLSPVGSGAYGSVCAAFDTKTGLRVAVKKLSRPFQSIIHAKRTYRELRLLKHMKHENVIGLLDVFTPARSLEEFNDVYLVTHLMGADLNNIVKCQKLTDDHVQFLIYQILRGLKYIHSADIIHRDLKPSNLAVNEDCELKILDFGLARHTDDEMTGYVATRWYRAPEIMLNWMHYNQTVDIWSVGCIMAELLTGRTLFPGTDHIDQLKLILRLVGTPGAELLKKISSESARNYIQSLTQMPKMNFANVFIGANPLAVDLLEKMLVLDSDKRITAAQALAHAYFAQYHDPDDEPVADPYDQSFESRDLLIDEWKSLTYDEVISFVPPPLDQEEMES

SMILES | pIC50 (recombinant human p38α) | pIC50 [1]
Cn1c(=O)c(-c2cc(C(=O)NC3CC3)ccc2Cl)cc2cnn(-c3ccc(F)cc3)c21 [Example 53, 4-chloro-N-cyclopropyl-3-(1-(4-fluorophenyl)-7-methyl-6-oxo-6,7-dihydro-1H-pyrazolo[3,4-b]pyridin-5-yl)benzamide] | 8.22 | ≥ 6.76
Cc1c(F)cc(C(=O)NC2CC2)cc1-c1cc2cnn(-c3cc(F)ccc3F)c2n(C)c1=O [Example 23, N-cyclopropyl-3-(1-(2,5-difluorophenyl)-7-methyl-6-oxo-6,7-dihydro-1H-pyrazolo[3,4-b]pyridin-5-yl)-5-fluoro-4-methylbenzamide] | 8.41 | ≥ 6.76
Cc1ccc(C(=O)NC2CC2)cc1-c1cc2cnn(-c3cc(F)ccc3F)c2n(C)c1=O [Example 24, N-cyclopropyl-3-(1-(2,5-difluorophenyl)-7-methyl-6-oxo-6,7-dihydro-1H-pyrazolo[3,4-b]pyridin-5-yl)-4-methylbenzamide] | 8.21 | ≥ 6.76
CCn1c(=O)c(-c2cc(C(=O)NC3CC3)ccc2C)cc2cnn(-c3ccc(F)cc3F)c21 [Example 46, N-cyclopropyl-3-(1-(2,4-difluorophenyl)-7-ethyl-6-oxo-6,7-dihydro-1H-pyrazolo[3,4-b]pyridin-5-yl)-4-methylbenzamide] | 8.31 | ≥ 6.76
Cc1ccc(C(=O)Nc2ccon2)cc1-c1cc2cnn(-c3cc(F)ccc3F)c2n(C)c1=O [Example 26, 3-(1-(2,5-difluorophenyl)-7-methyl-6-oxo-6,7-dihydro-1H-pyrazolo[3,4-b]pyridin-5-yl)-N-3-isoxazolyl-4-methylbenzamide] | 8.64 | ≥ 6.76
Cc1c(F)cc(C(N)=O)cc1-c1cc2cnn(-c3ccccc3Cl)c2n(C)c1=O [Example 1, 3-(1-(2-chlorophenyl)-7-methyl-6-oxo-6,7-dihydro-1H-pyrazolo[3,4-b]pyridin-5-yl)-5-fluoro-4-methylbenzamide] | 8.64 | ≥ 6.76
Cc1c(F)cc(C(=O)NC2CC2)cc1-c1cc2cnn(C(C)C)c2n(C)c1=O [Example 17, N-cyclopropyl-3-fluoro-4-methyl-5-(7-methyl-1-(1-methylethyl)-6-oxo-6,7-dihydro-1H-pyrazolo[3,4-b]pyridin-5-yl)benzamide] |  | ≥ 6.76
CCn1c(=O)c(-c2cc(C(=O)NC3CC3)cc(F)c2C)cc2cnn(-c3ccccc3F)c21 [Example 6, N-cyclopropyl-3-(7-ethyl-1-(2-fluorophenyl)-6-oxo-6,7-dihydro-1H-pyrazolo[3,4-b]pyridin-5-yl)-5-fluoro-4-methylbenzamide] | 8.60 | ≥ 6.76
Cc1c(F)cc(C(=O)NC2CC2)cc1-c1cc2cnn(-c3ccccc3F)c2n(C)c1=O [Example 9, N-cyclopropyl-3-fluoro-5-(1-(2-fluorophenyl)-7-methyl-6-oxo-6,7-dihydro-1H-pyrazolo[3,4-b]pyridin-5-yl)-4-methylbenzamide] | 8.66 | ≥ 6.76
Cc1ccc(C(=O)NC2CC2)cc1-c1cc2cnn(-c3ccccc3C)c2n(C)c1=O [Example 14, N-cyclopropyl-4-methyl-3-(7-methyl-1-(2-methylphenyl)-6-oxo-6,7-dihydro-1H-pyrazolo[3,4-b]pyridin-5-yl)benzamide] | 8.38 | ≥ 6.76
Cn1c(=O)c(-c2cc(C(=O)NC3CC3)ccc2Cl)cc2cnn(-c3cc(F)ccc3F)c21 [Example 29, 4-chloro-N-cyclopropyl-3-(1-(2,5-difluorophenyl)-7-methyl-6-oxo-6,7-dihydro-1H-pyrazolo[3,4-b]pyridin-5-yl)benzamide] |  | ≥ 6.76
Cc1ccc(C(=O)NC2(C)CC2)cc1-c1cc2cnn(-c3c(F)cccc3F)c2n(C)c1=O [Example 30, 3-(1-(2,6-difluorophenyl)-7-methyl-6-oxo-6,7-dihydro-1H-pyrazolo[3,4-b]pyridin-5-yl)-4-methyl-N-(1-methylcyclopropyl)benzamide] |  | ≥ 6.76
